Measurements reported in US7125878B2, “Substituted pyrroline kinase inhibitors” (Janssen Pharmaceutica, priority 2002, dated 2006).
Where “and” joins values, the source holds several entries; their conditions need not be identical. Equal values may be shown once.

target: T1, recombinant rabbit GSK-3β protein (Oryctolagus cuniculus, UniProt G1T8E2); assay: Glycogen Synthase Kinase-3 Assay (33P phosphorylation of PPI-2); type: biochemical; details: @100 nM
T1 construct: purchased New England Biolabs
T1 sequence (G1T8E2 1-432): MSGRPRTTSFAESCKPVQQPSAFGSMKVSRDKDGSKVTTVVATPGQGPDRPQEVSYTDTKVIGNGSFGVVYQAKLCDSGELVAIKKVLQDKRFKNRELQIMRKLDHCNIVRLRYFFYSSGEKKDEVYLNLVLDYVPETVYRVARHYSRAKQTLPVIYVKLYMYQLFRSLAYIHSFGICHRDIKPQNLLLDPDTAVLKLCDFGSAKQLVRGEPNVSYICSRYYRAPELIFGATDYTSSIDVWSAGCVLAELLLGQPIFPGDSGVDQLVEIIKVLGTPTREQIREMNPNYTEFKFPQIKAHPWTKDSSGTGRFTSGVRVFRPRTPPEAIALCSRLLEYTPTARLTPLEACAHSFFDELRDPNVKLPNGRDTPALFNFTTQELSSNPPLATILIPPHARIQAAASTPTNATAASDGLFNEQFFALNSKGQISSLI
Method: Glycogen Synthase Kinase-3 Assay
Compounds were tested for the ability to inhibit recombinant rabbit GSK-3β protein using the following protocol. The test compound was added to a reaction mixture containing Protein Phosphatase Inhibitor-2 (PPI-2) (Calbiochem) (45 ng), rabbit GSK-3β protein (New England Biolabs) (0.75 units) and ^33P-ATP (1 μCi) in 50 mM Tris-HCl (pH 8.0), 10 mM MgCl2, 0.1% BSA, 1 mM DTT and 100 μM Sodium Vanadate. The mixture was reacted for 90 minutes at 30° C. to allow phosphorylation of the PPI-2 protein and then the protein in the reaction was precipitated using 10% TCA. The precipitated protein was collected on filter plates (MultiScreen-DV/Millipore), which were subsequently washed. Finally, the radioactivity was quantified using a TopCount Scintillation Counter (Packard). […] Staurosporine or Valproate, known inhibitors of GSK-3β, were used as a positive control for screening.

| inhibition at 0.1 µM [%] | Compound |
| --- | --- |
| 19 | O=C1NC(=O)C(c2cn(CCCO)c3ncccc23)=C1c1ncc[nH]1 [Cpd 17, 3-[1-(3-hydroxypropyl)-1H-pyrrolo[2,3-b]pyridin-3-yl]-4-(1H-imidazol-2-yl)-1H-pyrrole-2,5-dione] |

same assay, conditions: @200 nM

| inhibition at 0.2 µM [%] | Compound |
| --- | --- |
| 29 | O=C1NC(=O)C(c2cn(CCCO)c3ncccc23)=C1c1cn(CCCO)cn1 [Cpd 18, 3-[1-(3-hydroxypropyl)-1H-imidazol-4-yl]-4-[1-(3-hydroxypropyl)-1H-pyrrolo[2,3-b]pyridin-3-yl]-1H-pyrrole-2,5-dione] |
| 25 | O=C1NC(=O)C(c2cn(CCCO)c3ncccc23)=C1c1cn(CCO)cn1 [Cpd 19, 3-[1-(2-hydroxyethyl)-1H-imidazol-4-yl]-4-[1-(3-hydroxypropyl)-1H-pyrrolo[2,3-b]pyridin-3-yl]-1H-pyrrole-2,5-dione] |

same assay, conditions: @1 μM; two numbers = different days

| inhibition at 1 µM [%] | Compound |
| --- | --- |
| 23 | O=C1NC(=O)C(c2cn(CCCO)c3ncccc23)=C1c1ncccn1 [Cpd 56, 3-[1-(3-Hydroxy-propyl)-1H-pyrrolo[2,3-b]pyridin-3-yl]-4-pyrimidin-2-yl-pyrrole-2,5-dione] |
| 32 | Cc1noc(C)c1C1=C(c2cn(CCCO)c3ncccc23)C(=O)NC1=O [Cpd 44, 3-(3,5-Dimethyl-isoxazol-4-yl)-4-[1-(3-hydroxy-propyl)-1H-pyrrolo[2,3-b]pyridin-3-yl]-pyrrole-2,5-dione] |
| 39 | COc1ncc(C2=C(c3cn(CCCc4cccs4)c4ncccc34)C(=O)NC2=O)c(OC)n1 [Cpd 74, 3-(2,4-Dimethoxy-pyrimidin-5-yl)-4-[1-(3-thiophen-2-yl-propyl)-1H-pyrrolo[2,3-b]pyridin-3-yl]-pyrrole-2,5-dione] |
| 43 | O=C1NC(=O)C(c2cn(CCCO)c3ncccc23)=C1c1c[nH]c(=O)[nH]c1=O [Cpd 68, 5-{4-[1-(3-Hydroxy-propyl)-1H-pyrrolo[2,3-b]pyridin-3-yl]-2,5-dioxo-2,5-dihydro-1H-pyrrol-3-yl}-1H-pyrimidine-2,4-dione] |
| 54 | COc1ncc(C2=C(c3cn(Cc4ccccc4)c4ncccc34)C(=O)NC2=O)c(OC)n1 [Cpd 72, 3-(1-Benzyl-1H-pyrrolo[2,3-b]pyridin-3-yl)-4-(2,4-dimethoxy-pyrimidin-5-yl)-pyrrole-2,5-dione] |

same assay, conditions: two numbers = data obtained on different days

| Compound | IC50 |
| --- | --- |
| O=C1NC(=O)C(c2cn(CCCc3ccccc3)c3ncccc23)=C1c1cnccn1 [Cpd 60, 3-[1-(3-Phenyl-propyl)-1H-pyrrolo[2,3-b]pyridin-3-yl]-4-pyrazin-2-yl-pyrrole-2,5-dione] | 625 nM |
| O=C1NC(=O)C(c2cn(CCCOc3ccccc3)c3ncccc23)=C1c1cc2n(n1)CCC2 [Cpd 65, 3-(5,6-Dihydro-4H-pyrrolo[1,2-b]pyrazol-2-yl)-4-[1-(3-phenoxy-propyl)-1H-pyrrolo[2,3-b]pyridin-3-yl]-pyrrole-2,5-dione] | 188 nM and 244 nM |
| O=C1NC(=O)C(c2cn(CCCO)c3ncccc23)=C1c1ccco1 [Cpd 53, 3-Furan-2-yl-4-[1-(3-hydroxy-propyl)-1H-pyrrolo[2,3-b]pyridin-3-yl]-pyrrole-2,5-dione] | 211 nM and 143 nM |
| O=C1NC(=O)C(c2cn(CCCO)c3ncccc23)=C1c1cc2ccccc2s1 [Cpd 43, 3-Benzo[b]thiophen-2-yl-4-[1-(3-hydroxy-propyl)-1H-pyrrolo[2,3-b]pyridin-3-yl]-pyrrole-2,5-dione] | 198 nM and 126 nM |
| O=C1NC(=O)C(c2cn(CCCO)c3ncccc23)=C1c1ccn(CCCO)n1 [Cpd 16, 3-[1-(3-hydroxypropyl)-1H-pyrazol-3-yl]-4-[1-(3-hydroxypropyl)-1H-pyrrolo[2,3-b]pyridin-3-yl]-1H-pyrrole-2,5-dione] | 100 nM |
| O=C1NC(=O)C(c2cn(CCCO)c3ncccc23)=C1C1=COCCO1 [Cpd 51, 3-(5,6-Dihydro-[1,4]dioxin-2-yl)-4-[1-(3-hydroxy-propyl)-1H-pyrrolo[2,3-b]pyridin-3-yl]-pyrrole-2,5-dione] | 150 nM and 187 nM |
| O=C1NC(=O)C(c2cn(CCCc3ccccc3)c3ncccc23)=C1c1cc2n(n1)CCC2 [Cpd 59, 3-(5,6-Dihydro-4H-pyrrolo[1,2-b]pyrazol-2-yl)-4-[1-(3-phenyl-propyl)-1H-pyrrolo[2,3-b]pyridin-3-yl]-pyrrole-2,5-dione] | 519 nM and 424 nM |
| O=C1NC(=O)C(c2cn(CCCO)c3ncccc23)=C1c1cc2n(n1)CCC2 [Cpd 50, 3-(5,6-Dihydro-4H-pyrrolo[1,2-b]pyrazol-2-yl)-4-[1-(3-hydroxy-propyl)-1H-pyrrolo[2,3-b]pyridin-3-yl]-pyrrole-2,5-dione] | 88 nM and 107 nM |
| O=C1NC(=O)C(c2cn(CCCO)c3ncccc23)=C1c1cc2ccccc2o1 [Cpd 25, 3-(2-benzofuranyl)-4-[1-(3-hydroxypropyl)-1H-pyrrolo[2,3-b]pyridin-3-yl]-1H-pyrrole-2,5-dione] | 71 nM and 44 nM |
| O=C1NC(=O)C(c2cn(CCCO)c3ncccc23)=C1c1ccn(Cc2ccccc2)c1 [Cpd 48, 1′-Benzyl-4-[1-(3-hydroxy-propyl)-1H-pyrrolo[2,3-b]pyridin-3-yl]-1′H-[3,3′]bipyrrolyl-2,5-dione] | 47 nM and 38 nM |
| O=C1NC(=O)C(c2cn(CCCc3ccccc3)c3ncccc23)=C1c1cncnc1 [Cpd 58, 3-[1-(3-Phenyl-propyl)-1H-pyrrolo[2,3-b]pyridin-3-yl]-4-pyrimidin-5-yl-pyrrole-2,5-dione] | 366 nM and 344 nM |
| O=C1NC(=O)C(c2cn(CCCc3ccccc3)c3ncccc23)=C1C1=CCCCO1 [Cpd 61, 3-(5,6-Dihydro-4H-pyran-2-yl)-4-[1-(3-phenyl-propyl)-1H-pyrrolo[2,3-b]pyridin-3-yl]-pyrrole-2,5-dione] | 714 nM and 635 nM |
| O=C1NC(=O)C(c2cn(CCCO)c3ncccc23)=C1c1cc2n(n1)CCCC2 [Cpd 54, 3-[1-(3-Hydroxy-propyl)-1H-pyrrolo[2,3-b]pyridin-3-yl]-4-(4,5,6,7-tetrahydro-pyrazolo[1,5-a]pyridin-2-yl)-pyrrole-2,5-dione] | 232 nM and 161 nM |
| CCCCC1=C(c2cn(CCCO)c3ncccc23)C(=O)NC1=O [Cpd 70, 3-Butyl-4-[1-(3-hydroxy-propyl)-1H-pyrrolo[2,3-b]pyridin-3-yl]-pyrrole-2,5-dione] | 380 nM |
| O=C1NC(=O)C(c2cn(CCCO)c3ncccc23)=C1/C=C/c1ccc(F)cc1 [Cpd 22, 3-[(E)-2-(4-fluorophenyl)ethenyl]-4-[1-(3-hydroxypropyl)-1H-pyrrolo[2,3-b]pyridin-3-yl]-1H-pyrrole-2,5-dione] | 330 nM |

Results, then the compound that gave them:

| IC50 | Compound |
| --- | --- |
| 38 nM and 37 nM | Cn1ccc(C2=C(c3cn(CCCO)c4ncccc34)C(=O)NC2=O)c1 [Cpd 46, 4-[1-(3-Hydroxy-propyl)-1H-pyrrolo[2,3-b]pyridin-3-yl]-1′-methyl-1′H-[3,3′]bipyrrolyl-2,5-dione] |
| 10 nM | O=C1NC(=O)C(c2cn(CCCO)c3ncccc23)=C1c1ccc(F)cc1Cl [Cpd 10, 3-(2-chloro-4-fluorophenyl)-4-[1-(3-hydroxypropyl)-1H-pyrrolo[2,3-b]pyridin-3-yl]-1H-pyrrole-2,5-dione] |
| 240 nM | COc1ncc(C2=C(c3cn(CCOc4ccc(F)cc4)c4ncccc34)C(=O)NC2=O)c(OC)n1 [Cpd 75, 3-(2,4-Dimethoxy-pyrimidin-5-yl)-4-{1-[2-(4-fluoro-phenoxy)-ethyl]-1H-pyrrolo[2,3-b]pyridin-3-yl}-pyrrole-2,5-dione] |
| 3 nM | COc1ccccc1C1=C(c2cn(CCCO)c3ncccc23)C(=O)NC1=O [Cpd 8, 3-[1-(3-hydroxypropyl)-1H-pyrrolo[2,3-b]pyridin-3-yl]-4-(2-methoxyphenyl)-1H-pyrrole-2,5-dione] |
| 43 nM and 59 nM | COc1ncc(C2=C(c3cn(CCCOc4ccccc4)c4ncccc34)C(=O)NC2=O)c(OC)n1 [Cpd 76, 3-(2,4-Dimethoxy-pyrimidin-5-yl)-4-[1-(3-phenoxy-propyl)-1H-pyrrolo[2,3-b]pyridin-3-yl]-pyrrole-2,5-dione] |
| 28 nM and 18 nM | O=C1NC(=O)C(c2cn(CCCO)c3ncccc23)=C1c1cccoc1=O [Cpd 45, 3-[1-(3-Hydroxy-propyl)-1H-pyrrolo[2,3-b]pyridin-3-yl]-4-(2-oxo-2H-pyran-3-yl)-pyrrole-2,5-dione] |
| 51 nM | CCn1cc(C2=C(c3cn(CCCO)c4ncccc34)C(=O)NC2=O)c2cccnc21 [Cpd 7, 3-(1-ethyl-1H-pyrrolo[2,3-b]pyridin-3-yl)-4-[1-(3-hydroxypropyl)-1H-pyrrolo[2,3-b]pyridin-3-yl]-1H-pyrrole-2,5-dione] |
| 100 nM | COc1ncc(C2=C(c3cn(CCc4ccccc4)c4ncccc34)C(=O)NC2=O)c(OC)n1 [Cpd 73, 3-(2,4-Dimethoxy-pyrimidin-5-yl)-4-(1-phenethyl-1H-pyrrolo[2,3-b]pyridin-3-yl)-pyrrole-2,5-dione] |
| 140 nM and 59 nM | O=C1NC(=O)C(c2cn(CCCO)c3ncccc23)=C1c1ccoc1 [Cpd 67, 3-Furan-3-yl-4-[1-(3-hydroxy-propyl)-1H-pyrrolo[2,3-b]pyridin-3-yl]-pyrrole-2,5-dione] |
| 360 nM | COCCn1cc(C2=C(c3cnc(OC)nc3OC)C(=O)NC2=O)c2cccnc21 [Cpd 71, 3-(2,4-Dimethoxy-pyrimidin-5-yl)-4-[1-(2-methoxy-ethyl)-1H-pyrrolo[2,3-b]pyridin-3-yl]-pyrrole-2,5-dione] |
| 37 nM and 42 nM | O=C1NC(=O)C(c2cn(CCCO)c3ncccc23)=C1c1cncnc1 [Cpd 41, 3-[1-(3-Hydroxy-propyl)-1H-pyrrolo[2,3-b]pyridin-3-yl]-4-pyrimidin-5-yl-pyrrole-2,5-dione] |
| 6 nM | O=C1NC(=O)C(c2cn(CCCO)c3ncccc23)=C1c1cccs1 [Cpd 14, 3-[1-(3-hydroxypropyl)-1H-pyrrolo[2,3-b]pyridin-3-yl]-4-(2-thienyl)-1H-pyrrole-2,5-dione] |
